Results on nine molecules are retold here after patent US9150509B2, “Lipoic acid derivatives” (Cornerstone Pharmaceuticals, Inc., priority 2007, dated 2015).

Common to all, as to type: cell-based
The subject of one experiment is human melanoma A2058. As to the kind of experiment: Anti-tumor activity, cell growth inhibition by CellTiter Blue Assay, A2058. The settings on record: read-out: IC50 A2058 (melanoma). How it is done:
(§1) Three human tumor cells were used in this investigation, and they were human H460 NSCLC, human melanoma A2058 and human […] HT1080 cell lines. Cells were originally obtained from American Type Cell Culture (ATCC) and have been used for experiments at passages below 30. All tumor cells were maintained at 37° C. in a humidified 5% CO2 atmosphere in T75 tissue culture flasks containing 25 mL of Roswell Park Memorial Institute (RPMI) 1640, with 10% fetal bovine serum (FBS) and 2 mM L-glutamine. The tumor cells were split at a ratio of 1:10 every 4-5 days by trypsinization and resuspended in fresh medium in a new flask. Cells were harvested for experiments at 70-90% confluency.
(§2) The culture media used for all cell lines in this study was Roswell Park Memorial Institute (RPMI) 1640, with 10% fetal bovine serum (FBS), 2 mM L-glutamine, 100 IU/mL penicillin and 100 μg/ml streptomycin. The test compounds used were generally prepared at a concentration higher than 20 mM and tested at 1 mM in cultured media for precipitation, 1 mM is the highest tested concentration of the test compounds.
(§3) The anti-tumor activities of the test compounds were assessed by exposing the tumor cells to various concentrations of test compounds (or vehicle) or not treated with the test compounds or vehicle. The concentration ranges of the test compounds evaluated in this study were 0-1 mM. The duration of treatment of the tumor cells was 48 hours. Subsequent to treatment with the test articles, the number of viable tumor cells was determined, and the concentrations of the test agents that induced 50% of cell growth inhibition (IC50) were derived and compared.
(§4) Cell Seeding for Experiments: To cells grown to 70-90% confluency, medium was removed and the cell monolayers were washed briefly by adding 5 mL of phosphate buffer saline (PBS) followed by aspiration. Trypsin-ethylenediaminetetraacetic acid (EDTA) (4 mL) was added to each, flask, and the flask was placed in the tissue culture incubator for 5 minutes. Serum-containing medium (10 mL) was added to halt the enzymatic reactions, and cells were disaggregated, by repeated resuspension with serological pipet. The cell-containing medium (20 μL) was added to 20 μL of 0.4% Trypan Blue solution, mixed, and 10 μL of this cell-containing mixture was placed in a chamber of a hemocytometer. The number of viable cells was determined by counting the number of viable cells (cells that excluded trypan blue) in the 4 corner squares of the hemocytometer chamber at 100× magnification. The volume of cells needed was determined by the following formula:
(§5) The number of cells targeted for the study was 4×10^3 per well in 100 μL of medium. The actual number of cells were counted and seeded in the wells of a 96 well-plate. The cells were then incubated for ˜24 hrs before they were used for testing of anti-tumor activities of the test compounds and vehicle. Cell monolayer was confluent or subconfluent for some cell lines at the day of the experiment.
(§6) Treatment with Test Compounds and Vehicle: On the day of testing, 5 μL of a specific concentration of the test compounds (or vehicle) were added to the wells. After exposure to the test articles (or vehicle) for 48 hours, the number of viable cells in the wells was determined (see next section), and the percent of cells relative to no treatment was calculated.
(§7) Determination of the Number of Viable Cells by the CellTiter Blue Assay: The number of viable cells was determined using the CellTiter Blue Assay in this study. Specifically, reagents were allowed to come to room temperature according to instructions from Protoega, Inc. (Madison, Wis.). CellTiter Blue reagent was added with the 12-channel Eppendorf pipettor, 20 μL per well. The cells were then incubated at 37° C. for 1-4 hrs in cell culture incubator. Fluorescence intensity, which is proportional to the quantity of viable cells, was read at 530/590 nm using FLUOstar optima fluorescence plate reader (BMG technologies, Germany). […]
A general note: Resazurin is reduced to fluorescent resorufin, in cell work by metabolically active cells.

The next experiment relates to human H460 NSCLC. As to the kind of experiment: Anti-tumor activity, cell growth inhibition by CellTiter Blue Assay, H460. The conditions noted are these: read-out: IC50 H460 (NSCLC). How it is done: as §1, §2, §3, §4, §5, §6, §7
Experiment [1] deals with human adenocarcinoma HT1080. As to the kind of experiment: Anti-tumor activity, cell growth inhibition by CellTiter Blue Assay, HT1080. The settings on record: read-out: IC50 HT1080. How it is done: as §1, §2, §3, §4, §5, §6, §7
Where [2] appears, read: Homo sapiens, A2058, 48 h, A2058 cells, 48 hours treatment, 0-1 mM, viable cells by CellTiter Blue.
Setting [3] is: Homo sapiens, NCI-H460, 48 h, H460 cells, 48 hours treatment, 0-1 mM, viable cells by CellTiter Blue.
[4] abbreviates: Homo sapiens, HT-1080, 48 h, HT1080 cells, 48 hours treatment, 0-1 mM, viable cells by CellTiter Blue.
The mark [5] stands for this setting: A2058 cells, 48 hours treatment, 0-1 mM, viable cells by CellTiter Blue.
Setting [6] is: H460 cells, 48 hours treatment, 0-1 mM, viable cells by CellTiter Blue.
Setting [7] is: HT1080 cells, 48 hours treatment, 0-1 mM, viable cells by CellTiter Blue.

Where two headings read alike, the source gives them in different places.

A word on the IC50: it is the concentration at which inhibition is half-maximal. For the molecule `O=C(O)CCCCC(CCSc1ccnc2cc(Cl)ccc12)Sc1ccnc2cc(Cl)ccc12` (stereo not drawn) [A], the IC50 in the experiment with human melanoma A2058 (setting [2]) was 183 ± 3 µM; with human H460 NSCLC (setting [3]), 127 ± 11 µM; in experiment [1] (setting [4]) it was 80 ± 8 µM.

Consider `CCC(S)(CCCCC(=O)O)CC(S)c1ccccc1` (stereo not drawn) [Compound MM, 6-ethyl-8-phenyl-6,8-bismercaptooctanoic acid], for which the IC50 stood at 346 ± 20 µM in the experiment on human melanoma A2058 (setting [2]), 449 ± 1 µM in the experiment with human H460 NSCLC (setting [3]) and 421 ± 53 µM in experiment [1] (setting [4]).

`O=C(O)CCCCC(CCSc1ccnc2ccccc12)Sc1ccnc2ccccc12` (stereo not drawn) [F]: the IC50 in the experiment on human melanoma A2058 (Homo sapiens, A2058, 48 h) stood at 51 ± 4 µM; in the experiment with human H460 NSCLC (Homo sapiens, NCI-H460, 48 h), 70 ± 13 µM; in experiment [1] (Homo sapiens, HT-1080, 48 h), 68 ± 20 µM.

With `CCSC(CCS)CCCCC(=O)O` (stereo not drawn) [H, 6-ethylmercapto-8-mercaptooctanoic acid], the IC50 with human melanoma A2058 (setting [2]) is 238 ± 2 µM; in the experiment on human H460 NSCLC (setting [3]), 282 ± 20 µM; in experiment [1] (setting [4]), 270 ± 4 µM.

For `O=C(O)CCCCC(CCSSCc1ccccc1)SSCc1ccccc1` (stereo not drawn) [JJ], the figures for the IC50 (in the experiment with human melanoma A2058 (setting [5]); in the experiment on human H460 NSCLC (setting [6]); in experiment [1] (setting [7])) were 206 ± 55 µM, 318 ± 20 µM and 133 ± 2 µM, respectively.

For `O=C(O)CCCCC(CCSSCc1ccccc1)SSCc1ccccc1` (stereo not drawn) [KK], the IC50 in the experiment with human melanoma A2058 (setting [5]) was 483 ± 180 µM; with human H460 NSCLC (setting [6]), 409 ± 69 µM; in experiment [1] (setting [7]), 212 ± 52 µM.

As for `O=C(O)CCCCC1CCSC(c2ccncc2)S1` (stereo not drawn) [Q], the IC50 with human melanoma A2058 (Homo sapiens, A2058, 48 h) is 717 ± 11 µM.

`O=C(O)CCCCC(CCSCCc1ccccc1)SCCc1ccccc1` (stereo not drawn) [W]: the IC50 in the experiment on human melanoma A2058 (setting [2]) turned out to be 125 ± 3 µM; in the experiment on human H460 NSCLC (setting [3]), 167 ± 42 µM.

On to `O=C(O)CCCCC(CCSCc1c(F)c(F)c(F)c(F)c1F)SCc1c(F)c(F)c(F)c(F)c1F` (stereo not drawn) [X], for which the IC50 with human melanoma A2058 (setting [2]) came to 59 ± 4 µM; in the experiment on human H460 NSCLC (setting [3]), 64 ± 4 µM; in experiment [1] (setting [4]), 60 ± 18 µM.
